Reference: patent EP4094762A1, “TREATMENT OF NEUROLOGICAL INDICATIONS” (UCL Business Ltd, priority 2021, dated 2022)

Target: T1, P2Y1 receptor (Homo sapiens, UniProt P47900)
T1 construct: expressed in transfected cells
Experiment: Cell based HTRF assay measuring IP1 accumulation; antagonism of the P2Y1 agonist MRS2365
Settings: rounded to nearest whole number; read-out: IC50 IP1
Method: IC50 values were determined using a cell based assay in stably transfected cells overexpressing the P2Y1 receptor. The assay system is a high throughput […] assay measuring accumulation of the intracellular messenger inositol monophosphate (IP1), generated intracellularly following activation of P2Y1.
P2Y1 overexpressing cells were maintained in T175 flasks. The day before the assay, these cells were split and 20µl cell suspension transferred to each well of white 384-well assay plates at a cell density of 0.5x10^6 cells/mL. Plates were pulse centrifuged, then incubated overnight at 37°C / 5% CO2 prior to assay.
On day of assay, medium was removed from cells and replaced with stimulation buffer. […] Positive control antagonist curves with standard compounds were included on each plate. Plates were incubated with antagonists for 1 hour prior to addition of 5nM of the agonist MRS2365, dispensed using a Bravo liquid handler. Following agonist addition, plates were incubated for 60 minutes prior to assay. Both incubations were carried out at 37°C / 5% CO2.
For the assay, IP1 accumulation was quantified using the IPOne kit according to manufacturer's instructions. In short, a standard curve was prepared for IP1 quantification, and cells lysed using kit lysis buffer. Assay reagents were added to the lysates, and incubated for 1 hour at room temperature without spinning or shaking. Plates were analysed on a BMG Pherastar plate reader, and IP1 signal generated in cells interpolated from the standard curve.

T1 sequence (P47900 whole entry): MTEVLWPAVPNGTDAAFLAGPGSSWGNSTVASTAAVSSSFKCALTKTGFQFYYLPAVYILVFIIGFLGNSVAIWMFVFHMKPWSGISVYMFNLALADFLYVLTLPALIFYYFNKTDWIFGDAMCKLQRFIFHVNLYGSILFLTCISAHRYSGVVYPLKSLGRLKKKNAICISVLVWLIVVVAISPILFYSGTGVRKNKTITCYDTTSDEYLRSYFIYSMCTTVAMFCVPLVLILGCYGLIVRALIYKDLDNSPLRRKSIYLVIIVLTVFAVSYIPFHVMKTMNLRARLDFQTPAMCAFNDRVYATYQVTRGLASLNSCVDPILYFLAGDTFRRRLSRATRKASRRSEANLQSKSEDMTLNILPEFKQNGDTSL

IC50 [nM]	Structure (SMILES)
57	CC(C)(C)c1ccccc1Sc1ncccc1NC(=O)Nc1ccc(OC(F)(F)F)cc1 [S3]
76	CC(C)(C)c1ccccc1Oc1ncccc1NC(=O)Nc1ccc2c(c1)OC(F)(F)O2 [S6]
99	Cc1c(Oc2ncccc2NC(=O)Nc2ccc(OC(F)(F)F)cc2)cccc1-c1ccccc1 [S7]
124	O=C(Nc1ccc(OC(F)(F)F)cc1)Nc1cccnc1Oc1ccccc1S(F)(F)(F)(F)F [S10]
151	Cc1c(Oc2ncccc2NC(=O)Nc2ccc(OC(F)(F)F)cc2)cccc1N(C)C [S12]
151	Cc1cnc(Oc2ccccc2C(C)(C)C)c(NC(=O)Nc2ccc(OC(F)(F)F)cc2)c1 [S13]
173	O=C(Nc1ccc(OC(F)(F)F)cc1F)Nc1cccnc1Oc1ccccc1S(F)(F)(F)(F)F [S14]
179	CC(C)c1ccc(C(F)F)cc1Oc1ncccc1NC(=O)Nc1ccc(OC(F)(F)F)cc1 [S15]
202	Cc1c(Oc2ncccc2NC(=O)Nc2ccc(OC(F)(F)F)cc2)cccc1-c1ccc(C#N)cc1 [S16]
209	CC(C)(C)c1ccccc1Oc1ncccc1NC(=O)Nc1nc2ccc(Cl)nc2s1 [S17]
236	CC(C)(C)c1ccccc1Oc1ncncc1NC(=O)Nc1ccc(OC(F)(F)F)cc1 [S18]
264	CC(C)(C)c1ccccc1Oc1ncc(C#N)cc1NC(=O)Nc1ccc(OC(F)(F)F)cc1 [S19]
276	CC(C)(C)c1cccc(Oc2ncccc2NC(=O)Nc2ccc(OC(F)(F)F)cc2)c1 [S20]
301	CC(C)(C)c1ccccc1Oc1ncccc1NC(=O)NCc1ccc(OC(F)(F)F)cc1 [S21]
302	Cc1ccnc(Oc2ccccc2C(C)(C)C)c1NC(=O)Nc1ccc(OC(F)(F)F)cc1 [S22]
332	Cc1c(Oc2ncccc2NC(=O)Nc2ccc(OC(F)(F)F)cc2)cccc1N1CCOCC1 [S23]
398	Cc1cccc(Oc2ncccc2NC(=O)Nc2ccc(OC(F)(F)F)cc2)c1Br [S24]
493	CC(C)(C)c1ccccc1Oc1ncc(-c2ccc3c(c2)OCCN3)cc1NC(=O)Nc1ccc(OC(F)(F)F)cc1 [S26]
512	Cc1c(Oc2ncccc2NC(=O)Nc2ccc(OC(F)(F)F)cc2)cccc1-c1cccc(C#N)c1 [S27]
513	Cc1c(Br)cccc1Oc1ncccc1NC(=O)Nc1ccc(OC(F)(F)F)cc1 [S28]
514	CC(C)(C)c1ccccc1Oc1ncc(Br)cc1NC(=O)Nc1ccc(OC(F)(F)F)cc1 [S29]
574	CC(C)c1cccc(C(F)F)c1Oc1ncccc1NC(=O)Nc1ccc(OC(F)(F)F)cc1 [S30]
607	O=C(Nc1ccc(OC(F)(F)F)cc1)Nc1cccnc1Oc1cccc(N2CCCCC2)c1 [S31]
632	O=C(Nc1ccc(OC(F)(F)F)cc1)Nc1cccnc1Oc1ccccc1N1CCCCC1 [S33]
640	CC(C)(C)c1ccccc1Oc1ncccc1NC(=O)NCCCc1ccccc1 [S34]

IC50 [nM]	Structure (SMILES)
655	Cc1c(Oc2ncccc2NC(=O)Nc2ccc(OC(F)(F)F)cc2)cccc1N1CCCC1 [S35]
732	Cc1c(Oc2ncccc2NC(=O)Nc2ccc(OC(F)(F)F)cc2)cccc1N1CCC2(CC1)COC2 [S36]
778	Cc1c(Oc2ncccc2NC(=O)Nc2ccc(OC(F)(F)F)cc2)cccc1-c1ccc2ccn(C)c2c1 [S37]
827	O=C(Nc1ccc(OC(F)(F)F)cc1)Nc1cccnc1Oc1cccc(-c2ccccc2)c1 [S39]
924	O=C(Nc1ccc(OC(F)(F)F)cc1)Nc1cccnc1Oc1cccc(OCc2ccccc2)c1 [S40]
925	O=C(Nc1ccc(OC(F)(F)F)cc1)Nc1cccnc1Oc1ccccc1Br [S41]
948	CC(C)(C)c1ccc(O)c(Oc2ncccc2NC(=O)Nc2ccc(OC(F)(F)F)cc2)c1 [S42]
958	CC(C)(C)c1ccccc1Oc1ncccc1NC(=O)NCCc1ccccc1 [S43]
1030	Cc1c(C#N)cccc1Oc1ncccc1NC(=O)Nc1ccc(OC(F)(F)F)cc1 [S44]
1060	CC(C)(C)c1ccccc1Oc1ccsc1NC(=O)Nc1ccc(OC(F)(F)F)cc1 [S45]
1100	Cc1cccc(Oc2ncccc2NC(=O)Nc2ccc(OC(F)(F)F)cc2)c1 [S47]
1110	Cn1cc(-c2cnc(Oc3ccccc3C(C)(C)C)c(NC(=O)Nc3ccc(OC(F)(F)F)cc3)c2)cn1 [S48]
1240	Cc1c(Oc2ncccc2NC(=O)Nc2ccc(OC(F)(F)F)cc2)cccc1-c1ccc2c(c1)OCCN2 [S49]
1280	O=C(Nc1ccc(OC(F)(F)F)cc1)Nc1cccnc1Oc1cc(O)ccc1Br [S50]
1320	O=C(Nc1ccc(OC(F)(F)F)cc1)Nc1cccnc1Oc1cccc(Br)c1 [S51]
1410	O=C(Nc1ccc(OC(F)(F)F)cc1)Nc1cccnc1Oc1cccc(O)c1 [S52]
1770	CC(C)(C)c1ccccc1Oc1nnccc1NC(=O)Nc1ccc(OC(F)(F)F)cc1 [S53]
1770	CC(C)(C)c1ccccc1Oc1nccc(O)c1NC(=O)Nc1ccccc1 [S54]
1970	Cc1ccc(C)c(Oc2ncccc2NC(=O)Nc2ccc(OC(F)(F)F)cc2)c1 [S55]
1960	CC(C)(C)c1ccccc1Oc1ncc(-c2cccc(C#N)c2)cc1NC(=O)Nc1ccc(OC(F)(F)F)cc1 [S56]
1990	Cc1ccccc1Oc1ncc(C(F)F)cc1NC(=O)Nc1ccc(OC(F)(F)F)cc1 [S57]
2100	CC(C)(C)c1ccccc1Oc1ncc(-c2ccc(C#N)cc2)cc1NC(=O)Nc1ccc(OC(F)(F)F)cc1 [S58]
2140	Cc1c(Oc2ncccc2NC(=O)Nc2ccc(OC(F)(F)F)cc2)cccc1N1CC2CC1CO2 (stereo not drawn) [S59]
2460	Cc1c(Oc2ncccc2NC(=O)Nc2ccc(OC(F)(F)F)cc2)cccc1-c1cnn(C)c1 [S61]
2470	COc1ccc([C@H](C)NC(=O)Nc2cccnc2Oc2ccccc2C(C)(C)C)cc1 [S62]

IC50 [nM]	Structure (SMILES)
2510	N#Cc1cccc(-c2cccc(Oc3ncccc3NC(=O)Nc3ccc(OC(F)(F)F)cc3)c2)c1 [S63]
2810	Cc1cnc(Oc2cccc(N3CCCCC3)c2C)c(NC(=O)Nc2ccc(OC(F)(F)F)cc2)c1 [S64]
2860	O=C(Nc1ccc(OC(F)(F)F)cc1)Nc1cccnc1Oc1ccccc1 [S65]
3350	C=Cc1cnc(Oc2ccccc2C)c(NC(=O)Nc2ccc(OC(F)(F)F)cc2)c1 [S67]
3590	C#Cc1cnc(Oc2ccccc2C)c(NC(=O)Nc2ccc(OC(F)(F)F)cc2)c1 [S68]
4390	Cc1ccccc1Oc1ncc(C(F)(F)F)cc1NC(=O)Nc1ccc(OC(F)(F)F)cc1 [S69]
4590	Cc1ccccc1COc1ncccc1NC(=O)Nc1ccc(OC(F)(F)F)cc1 [S70]
4940	N#Cc1ccc(-c2cccc(Oc3ncccc3NC(=O)Nc3ccc(OC(F)(F)F)cc3)c2)cc1 [S71]
4940	Cc1ccccc1Oc1ncc(Br)cc1NC(=O)Nc1ccc(OC(F)(F)F)cc1 [S72]
5840	N#Cc1cccc(Oc2ncccc2NC(=O)Nc2ccc(OC(F)(F)F)cc2)c1 [S73]
6000	CC(c1ccccc1Oc1ncccc1NC(=O)Nc1ccc(OC(F)(F)F)cc1)N1CCCCC1 (stereo not drawn) [S74]
6590	Cc1c(Oc2ncccc2NC(=O)Nc2ccc(OC(F)(F)F)cc2)cccc1S(C)(=O)=O [S75]
7070	CC(C)(C)c1ccccc1Oc1ncccc1NC(=O)NC1CC2(C1)CN(CC(F)(F)F)C2 [S76]
7120	CC(C)(O)c1ccccc1Oc1ncccc1NC(=O)Nc1ccc(OC(F)(F)F)cc1 [S77]
7160	COc1ccc(Br)c(Oc2ncccc2NC(=O)Nc2ccc(OC(F)(F)F)cc2)c1 [S78]
7580	CC(C)(C)c1ccccc1Oc1ncc(-c2ccccc2)cc1NC(=O)Nc1ccc(OC(F)(F)F)cc1 [S79]
7940	O=C(Nc1ccc(F)cc1F)Nc1cccnc1Oc1ccc(C(F)(F)F)cc1 [S80]
8120	Cc1ccccc1Oc1ncncc1NC(=O)Nc1ccc(OC(F)(F)F)cc1 [S81]
8180	Cn1cc(-c2cccc(Oc3ncccc3NC(=O)Nc3ccc(OC(F)(F)F)cc3)c2)cn1 [S82]
8730	O=C(Nc1ccc(OC(F)(F)F)cc1)Nc1cccnc1Oc1cccc(N2CCOCC2)c1 [S83]
8990	Cc1ccccc1Oc1ncc(NC2CCOCC2)cc1NC(=O)Nc1ccc(OC(F)(F)F)cc1 [S84]
9530	Cc1c(Oc2ncccc2NC(=O)Nc2ccc(OC(F)(F)F)cc2)cccc1-c1cccc(CN(C)C)c1 [S85]
9680	CCOC(=O)c1nnc(NC(=O)Nc2cccnc2Oc2ccccc2C(C)(C)C)s1 [S86]

Test system: not listed separately
Experiment: CNS penetration: intravenous cassette pharmacokinetic study, brain and plasma by LC-MS/MS
Settings: mouse, intravenous
Method: To assess penetration of compounds into the mouse central nervous system, intravenous pharmacokinetic studies were undertaken in C57B16/J mice. […] Compounds were then combined into a single dosing solution and administered together via the intravenous route into 24 mice. Total compound dose administered to each mouse was 2mg/kg. Mice were culled at various times post dosing and brain and plasma collected for bioanalysis. In particular, mice were culled and plasma collected for bioanalysis at 8 time points out to 24 hours post dosing. Brains were also collected for bioanalysis at various time points to assess CNS penetration. 2 hour and 4 hour brain collection was carried out in all studies. Additional time points were collected in selected studies.
For bioanalysis, compounds were prepared in DMSO and aliquoted together to ensure a final concentration of 1mg/mL per compound in DMSO. Analytical standards were prepared from the initial 1mg/mL stock solution of compound, with a 12-point standard curve range from 0.5ng/mL to 2000ng/mL, with independent quality control tests from 1ng/mL to 1000ng/mL run to validate the standards. All standards and QC samples were matrix matched to eliminate possible suppression. Plasma samples were prepared with a 1:10 dilution in plasma. […] Dose solutions were diluted in a control matrix to a relative concentration that fell on the standard curve. Cold acetonitrile containing internal standard was added to all samples, standards, dose samples and QC samples; samples were then centrifuged for 30 minutes at 4000rpm. After centrifugation, supernatant was transferred to a new 96-well plate, diluted with an equal volume of water and mixed thoroughly before LC-MS analysis.
Supernatents were analysed by LC-MS/MS. From the analysis data a response ratio was obtained using the formula Response Ratio = Test Peak Area/Internal Standard Peak Area. From the standard curve, the test peak area was converted to concentration of test compound.
To establish CNS penetration, the ratio of the concentration of each compound in the plasma samples to the brain samples was assessed.

Structure (SMILES)	CNS penetration (in words)
CC1(C)CN(c2ccccc2NC(=O)Nc2ccc(OC(F)(F)F)cc2)c2c(O)ccc(-c3ccc(Cl)cc3)c21 [RS1, 1-(2-(4-(4-chlorophenyl)-7-hydroxy-3,3-dimethylindolin-1-yl)phenyl)-3-(4-(trifluoromethoxy)phenyl)urea, reference compound]	no apparent CNS penetration
Cc1ccc(NC(=O)Nc2ccc(OC(F)(F)F)cc2)c(Oc2ccccc2C(C)(C)C)n1 [RS2, 1-(2-(2-(tert-butyl)phenoxy)-6-methylpyridin-3-yl)-3-(4-(trifluoromethoxy)phenyl)urea, reference compound]	no apparent CNS penetration
